Patent publication US20240148723A1, “MYCOBACTERIUM TUBERCULOSIS COMPOSITIONS AND METHODS” (priority 2021, published 2024)
Converted amounts (≈) assume the structure as drawn. “And” between values parts separate entries of the source, which are not always exact repeats. Equal values may be shown once. “Also recorded” adds a separate entry of the source. Read-outs that look alike come from different tables or passages of the source.

Columns and labels:
M. tuberculosis H37Ra [1] = assay: microbe, parasite or virus in culture; format: cell-based, Mycobacterium tuberculosis; conditions: for MIC: Mycobacterium tuberculosis, H37RA
H37Ra = assay: microbe, parasite or virus in culture; format: cell-based, Mycobacterium tuberculosis
[2] = tested on: M. tuberculosis H37Ra PZA^R #78; assay: microbe, parasite or virus in culture; format: cell-based; conditions: Mycobacterium tuberculosis, 504 h, pH 6.8, read-out: MIC of PZA
[3] = tested on: M. tuberculosis H37Ra (PZA^S); format: cell-based; conditions: test tubes, PZA-S1 medium, pH 6.8
[4] = tested on: M. tuberculosis H37Ra PZA^R #6; assay: microbe, parasite or virus in culture; format: cell-based; conditions: Mycobacterium tuberculosis, 504 h, pH 6.8, read-out: MIC of PZA
[5] = tested on: M. tuberculosis H37Ra PZA^R #106; assay: microbe, parasite or virus in culture; format: cell-based; conditions: Mycobacterium tuberculosis, 504 h, pH 6.8, read-out: MIC of PZA
M. tuberculosis H37Ra [6] = assay: microbe, parasite or virus in culture; format: cell-based, Mycobacterium tuberculosis; conditions: for MIC: Mycobacterium tuberculosis, H37RA; remark: listed apart in the source
[7] = tested on: M. tuberculosis H37Ra PZA^R #186; assay: microbe, parasite or virus in culture; format: cell-based; conditions: Mycobacterium tuberculosis, 504 h, pH 6.8, read-out: MIC of PZA
[8] = tested on: M. tuberculosis H37Ra PZA^R #98; assay: microbe, parasite or virus in culture; format: cell-based; conditions: Mycobacterium tuberculosis, 504 h, pH 6.8, read-out: MIC of PZA
M. tuberculosis H37Ra [9] = format: cell-based, Mycobacterium tuberculosis
M. tuberculosis = format: cell-based, Mycobacterium tuberculosis; conditions: pH 6.8

NC(=O)c1cnccn1 [PZA, Pyrazinamide]
MIC (M. tuberculosis H37Ra [1]; 336 h, pH 6.8): 200 µg/mL (≈ 1620 µM) | MIC (M. tuberculosis H37Ra [1]; pH 6.8, read-out: MICs of PZA): 100 to 200 µg/mL (≈ 812 to 1620 µM) | MIC (M. tuberculosis H37Ra [1]; read-out: MIC of PZA): 50 µg/mL | increase in MIC between 1/100 and 1/10 inoculum size dilutions (M. tuberculosis H37Ra [1]; pH 6.8): 2-8 fold | Percentage of CFU to Z 0 (H37Ra): 1.20% and 0.14% and 0.02% and 0.08% | MIC (H37Ra; Mycobacterium tuberculosis, H37RA, read-out: MIC of PZA): 50 µg/mL | MIC [2]: > 800 µg/mL | concentration of PZA at which growth was inhibited [3]: 200 µg/mL | MIC [4]: > 800 µg/mL | MIC [5]: > 800 µg/mL | MIC for PZA lower in acidic conditions (pH 6.5 and pH 6.0) than in neutral pH 7.0 conditions (M. tuberculosis H37Ra [6]): 8 fold | MIC (M. tuberculosis H37Ra [6]; pH 5.5, read-out: MIC for PZA): < 12.5 µg/mL | MIC (M. tuberculosis H37Ra [6]; pH 6, read-out: MIC for PZA): 100 µg/mL (≈ 812 µM) | MIC (M. tuberculosis H37Ra [6]; pH 7, read-out: MIC for PZA): 25 µg/mL (≈ 203 µM) | MIC (M. tuberculosis H37Ra [6]; pH 8, read-out: MIC for PZA): 200 µg/mL (≈ 1620 µM) | MIC (M. tuberculosis H37Ra [6]; read-out: MIC for PZA): 200 µg/mL (≈ 1620 µM) | growth (M. tuberculosis H37Ra [6]; pH 5): − | growth (M. tuberculosis H37Ra [6]; pH 5.5): − and + | growth (M. tuberculosis H37Ra [6]; pH 6): + and − | growth (M. tuberculosis H37Ra [6]; pH 6.5): + and − | growth (M. tuberculosis H37Ra [6]; pH 7): + and − | growth (M. tuberculosis H37Ra [6]; pH 7.5): − and + | growth (M. tuberculosis H37Ra [6]; pH 8): − and + | growth (M. tuberculosis H37Ra [6]; pH 8.5): − and + | MIC [7]: > 800 µg/mL | MIC [8]: > 800 µg/mL | lawn formation of M. tuberculosis (M. tuberculosis H37Ra [9]; pH 6.6): no inhibition | growth inhibition, paper disk (M. tuberculosis H37Ra [9]; pH 6.8): small inhibition zone; also recorded: strong growth inhibition | lawn formation of M. tuberculosis (M. tuberculosis H37Ra [9]; pH 6.8): inhibited lawn formation

COc1nc2ccc(Br)cc2cc1[C@@H](c1ccccc1)[C@@](O)(CCN(C)C)c1cccc2ccccc12 [bedaquiline]
MIC (M. tuberculosis H37Ra [1]; pH 6.8): 0.064 µg/mL (≈ 0.115 µM)

CC[C@@]1([C@@H]2O[C@@H]([C@H]3O[C@@](O)(CO)[C@H](C)C[C@@H]3C)C[C@@H]2C)CC[C@H]([C@]2(C)CC[C@]3(C[C@H](O)[C@@H](C)[C@@H]([C@@H](C)[C@@H](OC)[C@H](C)C(=O)[O-])O3)O2)O1.[Na+] [compound 343257]
MIC in the media 7H9 (M. tuberculosis): ≥ 4.33 µg/mL | MIC in the media L-Ala (M. tuberculosis): 4.33 µg/mL | MIC in the media SBA (M. tuberculosis): 4.33 µg/mL | MIC in the media SLac (M. tuberculosis): 8.66 µg/mL

O=[N+]([O-])c1oc2ccc3ccccc3c2c1CCO [compound 373981]
MIC in the media 7H9 (M. tuberculosis): ≥ 0.82 µg/mL | MIC in the media L-Ala (M. tuberculosis): 0.82 µg/mL (≈ 3.19 µM) | MIC in the media SBA (M. tuberculosis): 0.82 µg/mL (≈ 3.19 µM) | MIC in the media SLac (M. tuberculosis): 0.82 µg/mL (≈ 3.19 µM)

O=C(Nc1ccccc1)c1cc(Cl)ccc1O [compound 402600]
MIC in the media 7H9 (M. tuberculosis): ≥ 24.77 µg/mL | MIC in the media L-Ala (M. tuberculosis): 1.55 µg/mL (≈ 6.26 µM) | MIC in the media SBA (M. tuberculosis): 1.55 µg/mL (≈ 6.26 µM) | MIC in the media SLac (M. tuberculosis): 0.79 µg/mL (≈ 3.19 µM)

CCCOC(=O)c1ccc([N+](=O)[O-])cc1 [compound 406847]
MIC in the media 7H9 (M. tuberculosis): ≥ 83.68 µg/mL | MIC in the media L-Ala (M. tuberculosis): 5.23 µg/mL (≈ 25 µM) | MIC in the media SBA (M. tuberculosis): 10.46 µg/mL (≈ 50 µM) | MIC in the media SLac (M. tuberculosis): 5.23 µg/mL (≈ 25 µM)

O=C(CCc1ccc(O)cc1)c1c(O)cc(O)cc1O [compound 407292]
MIC in the media 7H9 (M. tuberculosis): ≥ 109.72 µg/mL | MIC in the media L-Ala (M. tuberculosis): 1.71 µg/mL (≈ 6.23 µM) | MIC in the media SBA (M. tuberculosis): 3.43 µg/mL (≈ 12.5 µM) | MIC in the media SLac (M. tuberculosis): 1.71 µg/mL (≈ 6.23 µM)

Cc1nc(C(=O)N=C(N)N)c(N)nc1-c1ccccc1 [compound 614911]
MIC in the media 7H9 (M. tuberculosis): ≥ 108.12 µg/mL | MIC in the media L-Ala (M. tuberculosis): 13.52 µg/mL (≈ 50 µM) | MIC in the media SBA (M. tuberculosis): 27.03 µg/mL (≈ 100 µM) | MIC in the media SLac (M. tuberculosis): 27.03 µg/mL (≈ 100 µM)

Cl.O=C(c1ccc(OCCN2CCCCC2)cc1)c1c(-c2ccc(O)cc2)sc2cc(O)ccc12 [compound 747974]
MIC in the media 7H9 (M. tuberculosis): ≥ 47.36 µg/mL | MIC in the media L-Ala (M. tuberculosis): 2.96 µg/mL | MIC in the media SBA (M. tuberculosis): 2.96 µg/mL | MIC in the media SLac (M. tuberculosis): 2.96 µg/mL

O=C(c1ccc(F)c(F)c1Nc1ccc(I)cc1F)N1CC(O)(C2CCCCN2)C1 (stereo not shown) [compound 768068]
MIC in the media 7H9 (M. tuberculosis): ≥ 26.57 µg/mL | MIC in the media L-Ala (M. tuberculosis): 13.28 µg/mL (≈ 25 µM) | MIC in the media SBA (M. tuberculosis): 3.32 µg/mL (≈ 6.25 µM) | MIC in the media SLac (M. tuberculosis): 3.32 µg/mL (≈ 6.25 µM)

CN1CCN(c2ccc(C(=O)Nc3n[nH]c4ccc(Cc5cc(F)cc(F)c5)cc34)c(NC3CCOCC3)c2)CC1 [compound 774769]
MIC in the media 7H9 (M. tuberculosis): ≥ 28.03 µg/mL | MIC in the media L-Ala (M. tuberculosis): 7.01 µg/mL (≈ 12.5 µM) | MIC in the media SBA (M. tuberculosis): 3.50 µg/mL (≈ 6.24 µM) | MIC in the media SLac (M. tuberculosis): 3.50 µg/mL (≈ 6.24 µM)

C=CC(=O)Nc1cc(Nc2nccc(-c3cn(C)c4ccccc34)n2)c(OC)cc1N(C)CCN(C)C [compound 779217]
MIC in the media 7H9 (M. tuberculosis): ≥ 12.49 µg/mL | MIC in the media L-Ala (M. tuberculosis): 3.12 µg/mL (≈ 6.24 µM) | MIC in the media SBA (M. tuberculosis): 3.12 µg/mL (≈ 6.24 µM) | MIC in the media SLac (M. tuberculosis): 1.60 µg/mL (≈ 3.2 µM)

CN1CCc2cc3c(c4c2C1Cc1ccccc1-4)OCO3.Cl (stereo not shown) [compound 785164]
MIC in the media 7H9 (M. tuberculosis): ≥ 13.97 µg/mL | MIC in the media L-Ala (M. tuberculosis): 6.98 µg/mL | MIC in the media SBA (M. tuberculosis): 3.49 µg/mL | MIC in the media SLac (M. tuberculosis): 1.75 µg/mL

COc1cc2c(cc1O)C[C@H]1c3c(cc4c(c3-2)OCO4)CCN1C [compound 785178]
MIC in the media 7H9 (M. tuberculosis): ≥ 16.27 µg/mL | MIC in the media L-Ala (M. tuberculosis): 8.13 µg/mL (≈ 25 µM) | MIC in the media SBA (M. tuberculosis): 4.07 µg/mL (≈ 12.5 µM) | MIC in the media SLac (M. tuberculosis): 4.07 µg/mL (≈ 12.5 µM)

CC[C@@H](CO)NCCN[C@@H](CC)CO [ethambutol]
MIC (M. tuberculosis H37Ra [1]; 336 h, pH 6.8): 2 µg/mL (≈ 9.79 µM) | MIC (M. tuberculosis H37Ra [1]; pH 6.8): 1.6 µg/mL (≈ 7.83 µM)

CCc1cc(C(N)=S)ccn1 [ethionamide]
MIC (M. tuberculosis H37Ra [1]; pH 6.8): 0.5 µg/mL (≈ 3.01 µM)

NNC(=O)c1ccncc1 [isoniazid]
MIC (M. tuberculosis H37Ra [1]; 336 h, pH 6.8): 0.02 µg/mL (≈ 0.146 µM) | MIC (M. tuberculosis H37Ra [1]; pH 6.8): 0.06 µg/mL (≈ 0.438 µM)

CC(=O)NC[C@H]1CN(c2ccc(N3CCOCC3)c(F)c2)C(=O)O1 [linezolid]
MIC (M. tuberculosis H37Ra [1]; pH 6.8): 2 µg/mL (≈ 5.93 µM)

COc1c(N2C[C@@H]3CCCN[C@@H]3C2)c(F)cc2c(=O)c(C(=O)O)cn(C3CC3)c12 [moxifloxacin]
MIC (M. tuberculosis H37Ra [1]; pH 6.8): 0.25 µg/mL (≈ 0.623 µM)

CO[C@H]1/C=C/O[C@@]2(C)Oc3c(C)c(O)c4c(O)c(c(/C=N/N5CCN(C)CC5)c(O)c4c3C2=O)NC(=O)/C(C)=C\C=C\[C@H](C)[C@H](O)[C@@H](C)[C@@H](O)[C@@H](C)[C@H](OC(C)=O)[C@@H]1C [rifampin]
MIC (M. tuberculosis H37Ra [1]; 336 h, pH 6.8): 0.13 µg/mL (≈ 0.158 µM) | MIC (M. tuberculosis H37Ra [1]; pH 6.8): 0.06 µg/mL (≈ 0.0729 µM)

[H]/N=C(/N)N[C@H]1[C@H](O)[C@@H](O)[C@H](O[C@@H]2O[C@@H](C)[C@](O)(C=O)[C@H]2O[C@@H]2O[C@@H](CO)[C@H](O)[C@@H](O)[C@@H]2NC)[C@@H](N/C(N)=N\[H])[C@@H]1O [streptomycin]
MIC (M. tuberculosis H37Ra [1]; pH 6.8): 0.25 µg/mL (≈ 0.43 µM)
